ChEMBL document CHEMBL5291721, “A preclinical secondary pharmacology resource illuminates target-adverse drug reaction associations of marketed drugs” (Nat Commun, 2023)

Columns and labels:
[1] = biological target: T1, Corticotropin-releasing factor receptor 1 (Homo sapiens, UniProt P34998)
T1 sequence (P34998 whole entry): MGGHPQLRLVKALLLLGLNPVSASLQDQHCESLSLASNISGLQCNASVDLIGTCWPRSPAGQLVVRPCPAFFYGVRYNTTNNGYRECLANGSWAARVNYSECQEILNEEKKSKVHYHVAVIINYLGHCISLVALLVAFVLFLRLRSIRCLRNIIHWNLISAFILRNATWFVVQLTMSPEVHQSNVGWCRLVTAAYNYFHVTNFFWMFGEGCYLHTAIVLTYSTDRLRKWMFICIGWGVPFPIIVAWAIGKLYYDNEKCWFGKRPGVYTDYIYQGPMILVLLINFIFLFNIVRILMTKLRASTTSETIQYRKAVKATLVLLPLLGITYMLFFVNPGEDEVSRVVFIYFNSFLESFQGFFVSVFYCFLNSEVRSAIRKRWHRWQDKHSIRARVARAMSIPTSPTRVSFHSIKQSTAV

[2] = biological target: 5-hydroxytryptamine receptor 2B (Homo sapiens, UniProt P41595)
Progesterone receptor = biological target: T2, Progesterone receptor (Homo sapiens, UniProt P06401)
T2 sequence (P06401 whole entry): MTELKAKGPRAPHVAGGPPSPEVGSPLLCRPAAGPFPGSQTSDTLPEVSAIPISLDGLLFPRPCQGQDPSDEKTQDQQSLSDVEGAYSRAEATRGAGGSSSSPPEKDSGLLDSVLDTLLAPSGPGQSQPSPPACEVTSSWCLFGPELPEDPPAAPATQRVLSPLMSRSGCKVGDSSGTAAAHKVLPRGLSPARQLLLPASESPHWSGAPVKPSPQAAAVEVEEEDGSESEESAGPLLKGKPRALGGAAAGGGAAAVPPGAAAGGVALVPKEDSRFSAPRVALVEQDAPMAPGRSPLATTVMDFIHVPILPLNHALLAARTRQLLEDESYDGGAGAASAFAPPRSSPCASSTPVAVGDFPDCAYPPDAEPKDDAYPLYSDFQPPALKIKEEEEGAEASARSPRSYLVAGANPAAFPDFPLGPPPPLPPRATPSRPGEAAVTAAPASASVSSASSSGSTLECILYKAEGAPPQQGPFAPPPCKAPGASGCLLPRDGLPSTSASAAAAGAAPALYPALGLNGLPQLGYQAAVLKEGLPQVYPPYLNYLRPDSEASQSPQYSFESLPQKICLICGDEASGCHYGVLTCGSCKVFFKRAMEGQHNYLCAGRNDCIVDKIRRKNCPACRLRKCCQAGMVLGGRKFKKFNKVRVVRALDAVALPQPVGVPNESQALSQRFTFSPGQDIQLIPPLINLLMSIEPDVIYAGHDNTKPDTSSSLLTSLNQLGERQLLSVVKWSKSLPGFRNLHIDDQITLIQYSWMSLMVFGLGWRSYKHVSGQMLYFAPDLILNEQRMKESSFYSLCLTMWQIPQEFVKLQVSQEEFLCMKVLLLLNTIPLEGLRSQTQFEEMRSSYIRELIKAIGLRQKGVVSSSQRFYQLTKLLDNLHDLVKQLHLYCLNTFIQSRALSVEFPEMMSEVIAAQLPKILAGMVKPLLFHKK

[3] = biological target: T3, 5-hydroxytryptamine receptor 1A (Homo sapiens, UniProt P08908)
T3 sequence (P08908 whole entry): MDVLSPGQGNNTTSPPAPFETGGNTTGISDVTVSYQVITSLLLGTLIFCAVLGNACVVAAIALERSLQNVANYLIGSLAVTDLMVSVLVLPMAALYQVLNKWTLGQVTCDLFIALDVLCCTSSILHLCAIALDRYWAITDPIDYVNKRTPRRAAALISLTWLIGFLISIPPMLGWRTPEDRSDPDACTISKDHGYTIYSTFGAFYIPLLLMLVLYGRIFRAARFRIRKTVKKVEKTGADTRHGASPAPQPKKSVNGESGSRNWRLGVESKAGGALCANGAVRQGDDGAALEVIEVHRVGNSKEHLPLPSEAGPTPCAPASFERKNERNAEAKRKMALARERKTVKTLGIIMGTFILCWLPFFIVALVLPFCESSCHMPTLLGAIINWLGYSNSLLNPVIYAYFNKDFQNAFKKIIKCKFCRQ

[4] = biological target: T4, Muscarinic acetylcholine receptor M2 (Homo sapiens, UniProt P08172)
T4 sequence (P08172 whole entry): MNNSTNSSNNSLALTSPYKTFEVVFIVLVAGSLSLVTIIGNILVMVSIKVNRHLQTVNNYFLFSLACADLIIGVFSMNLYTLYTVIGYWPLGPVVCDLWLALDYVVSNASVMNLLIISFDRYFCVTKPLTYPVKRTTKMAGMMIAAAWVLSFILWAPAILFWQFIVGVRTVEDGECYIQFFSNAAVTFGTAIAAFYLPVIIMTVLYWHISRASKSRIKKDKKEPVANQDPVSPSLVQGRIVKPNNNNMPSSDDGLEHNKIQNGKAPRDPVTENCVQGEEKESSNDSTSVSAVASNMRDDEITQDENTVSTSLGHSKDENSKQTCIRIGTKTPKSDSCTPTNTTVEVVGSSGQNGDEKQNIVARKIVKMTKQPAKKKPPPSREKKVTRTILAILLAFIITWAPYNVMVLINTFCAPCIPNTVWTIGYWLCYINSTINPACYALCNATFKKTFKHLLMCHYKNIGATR
Also: assay procedure not described here.

Sequence of 5-hydroxytryptamine receptor 2B (P41595 whole entry): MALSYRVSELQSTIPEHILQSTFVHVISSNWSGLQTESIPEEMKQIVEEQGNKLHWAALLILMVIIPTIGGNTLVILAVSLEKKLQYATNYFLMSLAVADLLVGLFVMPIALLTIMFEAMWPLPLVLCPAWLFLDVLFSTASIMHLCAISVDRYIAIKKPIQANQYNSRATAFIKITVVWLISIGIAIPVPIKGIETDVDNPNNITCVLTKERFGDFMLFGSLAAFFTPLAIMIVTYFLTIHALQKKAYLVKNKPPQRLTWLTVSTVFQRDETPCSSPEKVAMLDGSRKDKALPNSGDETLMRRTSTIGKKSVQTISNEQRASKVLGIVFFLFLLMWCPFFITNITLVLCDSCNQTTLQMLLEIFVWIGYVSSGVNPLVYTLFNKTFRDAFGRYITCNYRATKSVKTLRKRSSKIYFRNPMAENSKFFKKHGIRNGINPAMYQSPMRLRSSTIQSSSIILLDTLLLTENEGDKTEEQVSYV

Compound | AC50 [1] [µM] | AC50 [2] [µM] | AC50 (Progesterone receptor) [µM] | AC50 [3] [µM] | AC50 [4] [µM]
O=C(O[C@H]1C[N+]2(CCCOc3ccccc3)CCC1CC2)C(O)(c1cccs1)c1cccs1 [ACLIDINIUM BROMIDE] | > 30 | > 10 | > 30 | > 10 | –
Nc1cc(N2CCCCC2)nc(N)[n+]1[O-] [MINOXIDIL] | – | – | > 30 | > 10 | –
CCN(CC)C(C)C(=O)c1ccccc1 (stereo unspecified) [DIETHYLPROPION] | > 30 | > 10 | 0.22 | > 10 | > 10
N=C(N)NC(=O)Cc1c(Cl)cccc1Cl [GUANFACINE] | – | 1.34 | > 30 | 11.5 | –
C=C(c1ccccc1OCc1cccc(Cl)c1)n1ccnc1 [CROCONAZOLE] | – | – | – | > 10 | –
CC1NCCOC1c1ccccc1 (stereo unspecified) [PHENMETRAZINE] | > 30 | – | > 30 | > 10 | > 10
TEPRENONE | – | – | > 30 | > 10 | –
CC(NC(C)(C)C)C(=O)c1cccc(Cl)c1 (stereo unspecified) [BUPROPION] | > 30 | > 10 | > 30 | > 10 | > 10
CC1=C(CC(=O)O)c2cc(F)ccc2/C1=C\c1ccc([S+](C)[O-])cc1 (stereo unspecified) | > 30 | > 10 | > 30 | > 10 | > 10
CC1Cc2ccccc2N1NC(=O)c1ccc(Cl)c(S(N)(=O)=O)c1 (stereo unspecified) [INDAPAMIDE] | – | – | – | > 10 | –
Cc1nnc2n1-c1ccc(Cl)cc1C(c1ccccc1)=NC2 [ALPRAZOLAM] | > 30 | > 10 | > 30 | > 10 | > 10
Oc1cc(O)c2c(c1)O[C@H](c1ccc(O)c(O)c1)[C@@H](O)C2 [CIANIDANOL] | > 30 | > 10 | > 30 | > 10 | > 10
CN(C)CCOC(=O)C(c1ccccc1)C1(O)CCCC1 (stereo unspecified) [CYCLOPENTOLATE] | – | – | – | – | 0.624
CN1C2CCCC1CC(NC(=O)c1nn(C)c3ccccc13)C2 (stereo unspecified) [GRANISETRON] | > 30 | – | > 30 | > 10 | > 10
CCOC(=O)C1=C(C)NC(C)=C(C(=O)OC)C1c1cccc(Cl)c1Cl (stereo unspecified) [FELODIPINE] | > 30 | > 10 | 2.6 | > 10 | > 10
CC(C)(N)Cc1ccccc1 [PHENTERMINE] | > 30 | – | > 30 | > 10 | > 10
OCCN(CCO)c1nc(N2CCCCC2)c2nc(N(CCO)CCO)nc(N3CCCCC3)c2n1 [DIPYRIDAMOLE] | – | > 30 | > 30 | – | –
Cc1cnc(Nc2ccc(OCCN3CCCC3)cc2)nc1Nc1cccc(S(=O)(=O)NC(C)(C)C)c1 [FEDRATINIB] | – | – | > 30 | > 10 | –
CCN(C(C)=O)c1cccc(-c2ccnc3c(C#N)cnn23)c1 [ZALEPLON] | – | – | – | > 10 | –
Cc1ccc(-c2ncc(Cl)cc2-c2ccc(S(C)(=O)=O)cc2)cn1 [ETORICOXIB] | > 30 | > 10 | > 30 | > 10 | > 10
CCN(CC)CC(=O)Nc1c(C)cccc1C [LIDOCAINE] | > 30 | – | > 30 | – | –
CC(=O)Oc1cccc2c1C(=O)c1c(OC(C)=O)cc(C(=O)O)cc1C2=O [DIACEREIN] | – | > 30 | – | – | –
CN1CCC(=C2c3ccccc3CC(=O)c3sccc32)CC1 [KETOTIFEN] | – | 0.0328 | – | – | 0.432
COc1ccc2c3c1O[C@H]1C(=O)CC[C@H]4[C@@H](C2)N(C)CC[C@]314 [HYDROCODONE] | > 30 | > 10 | > 30 | > 10 | > 10
O=C1CN=C(c2ccccc2Cl)c2cc([N+](=O)[O-])ccc2N1 [CLONAZEPAM] | > 30 | > 10 | > 30 | > 10 | > 10
CN1C(=O)CN=C(c2ccccc2F)c2cc([N+](=O)[O-])ccc21 [FLUNITRAZEPAM] | > 30 | > 10 | > 10 | > 10 | > 10
